The record followed here is US20090270394A1, “CYCLYLAMINE DERIVATIVES AS CALCIUM CHANNEL BLOCKERS” (priority 2008, published 2009).

Molecules are shown by their SMILES. pIC50: −log10 of the molar value.

This assay has as its target T1, Human Cav2.2 channels (Homo sapiens, UniProt Q00975).
T1 construct: expressed in transfected cells
The assay is described as follows: Fluorescent assay for Cav2.2 channels using potassium depolarization to initiate channel opening. It is filed as cell-based. The note with it: for inhibition at 10 µM: 10 μM compound, read-out: Cav 2.2 Activity % Inh at 10 μM; for inhibition at 30 µM: 30 μM compound, read-out: Cav 2.2 Activity % Inh at 30 μM; for pIC50: 30 mM K (block of open and inactivated channels), read-out: Cav 2.2 Activity IC50 at 30 mM K. The procedure, abridged: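 HEK293 cells stably expressing human Cav2.2 with alpha2-delta and beta subunits plus Kir2.3, dye-loaded, then held 30 min at 25° C. in 4, 12, 25 or 30 mM K+ pre-polarization buffer with compound.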

T1 sequence (Q00975 whole entry): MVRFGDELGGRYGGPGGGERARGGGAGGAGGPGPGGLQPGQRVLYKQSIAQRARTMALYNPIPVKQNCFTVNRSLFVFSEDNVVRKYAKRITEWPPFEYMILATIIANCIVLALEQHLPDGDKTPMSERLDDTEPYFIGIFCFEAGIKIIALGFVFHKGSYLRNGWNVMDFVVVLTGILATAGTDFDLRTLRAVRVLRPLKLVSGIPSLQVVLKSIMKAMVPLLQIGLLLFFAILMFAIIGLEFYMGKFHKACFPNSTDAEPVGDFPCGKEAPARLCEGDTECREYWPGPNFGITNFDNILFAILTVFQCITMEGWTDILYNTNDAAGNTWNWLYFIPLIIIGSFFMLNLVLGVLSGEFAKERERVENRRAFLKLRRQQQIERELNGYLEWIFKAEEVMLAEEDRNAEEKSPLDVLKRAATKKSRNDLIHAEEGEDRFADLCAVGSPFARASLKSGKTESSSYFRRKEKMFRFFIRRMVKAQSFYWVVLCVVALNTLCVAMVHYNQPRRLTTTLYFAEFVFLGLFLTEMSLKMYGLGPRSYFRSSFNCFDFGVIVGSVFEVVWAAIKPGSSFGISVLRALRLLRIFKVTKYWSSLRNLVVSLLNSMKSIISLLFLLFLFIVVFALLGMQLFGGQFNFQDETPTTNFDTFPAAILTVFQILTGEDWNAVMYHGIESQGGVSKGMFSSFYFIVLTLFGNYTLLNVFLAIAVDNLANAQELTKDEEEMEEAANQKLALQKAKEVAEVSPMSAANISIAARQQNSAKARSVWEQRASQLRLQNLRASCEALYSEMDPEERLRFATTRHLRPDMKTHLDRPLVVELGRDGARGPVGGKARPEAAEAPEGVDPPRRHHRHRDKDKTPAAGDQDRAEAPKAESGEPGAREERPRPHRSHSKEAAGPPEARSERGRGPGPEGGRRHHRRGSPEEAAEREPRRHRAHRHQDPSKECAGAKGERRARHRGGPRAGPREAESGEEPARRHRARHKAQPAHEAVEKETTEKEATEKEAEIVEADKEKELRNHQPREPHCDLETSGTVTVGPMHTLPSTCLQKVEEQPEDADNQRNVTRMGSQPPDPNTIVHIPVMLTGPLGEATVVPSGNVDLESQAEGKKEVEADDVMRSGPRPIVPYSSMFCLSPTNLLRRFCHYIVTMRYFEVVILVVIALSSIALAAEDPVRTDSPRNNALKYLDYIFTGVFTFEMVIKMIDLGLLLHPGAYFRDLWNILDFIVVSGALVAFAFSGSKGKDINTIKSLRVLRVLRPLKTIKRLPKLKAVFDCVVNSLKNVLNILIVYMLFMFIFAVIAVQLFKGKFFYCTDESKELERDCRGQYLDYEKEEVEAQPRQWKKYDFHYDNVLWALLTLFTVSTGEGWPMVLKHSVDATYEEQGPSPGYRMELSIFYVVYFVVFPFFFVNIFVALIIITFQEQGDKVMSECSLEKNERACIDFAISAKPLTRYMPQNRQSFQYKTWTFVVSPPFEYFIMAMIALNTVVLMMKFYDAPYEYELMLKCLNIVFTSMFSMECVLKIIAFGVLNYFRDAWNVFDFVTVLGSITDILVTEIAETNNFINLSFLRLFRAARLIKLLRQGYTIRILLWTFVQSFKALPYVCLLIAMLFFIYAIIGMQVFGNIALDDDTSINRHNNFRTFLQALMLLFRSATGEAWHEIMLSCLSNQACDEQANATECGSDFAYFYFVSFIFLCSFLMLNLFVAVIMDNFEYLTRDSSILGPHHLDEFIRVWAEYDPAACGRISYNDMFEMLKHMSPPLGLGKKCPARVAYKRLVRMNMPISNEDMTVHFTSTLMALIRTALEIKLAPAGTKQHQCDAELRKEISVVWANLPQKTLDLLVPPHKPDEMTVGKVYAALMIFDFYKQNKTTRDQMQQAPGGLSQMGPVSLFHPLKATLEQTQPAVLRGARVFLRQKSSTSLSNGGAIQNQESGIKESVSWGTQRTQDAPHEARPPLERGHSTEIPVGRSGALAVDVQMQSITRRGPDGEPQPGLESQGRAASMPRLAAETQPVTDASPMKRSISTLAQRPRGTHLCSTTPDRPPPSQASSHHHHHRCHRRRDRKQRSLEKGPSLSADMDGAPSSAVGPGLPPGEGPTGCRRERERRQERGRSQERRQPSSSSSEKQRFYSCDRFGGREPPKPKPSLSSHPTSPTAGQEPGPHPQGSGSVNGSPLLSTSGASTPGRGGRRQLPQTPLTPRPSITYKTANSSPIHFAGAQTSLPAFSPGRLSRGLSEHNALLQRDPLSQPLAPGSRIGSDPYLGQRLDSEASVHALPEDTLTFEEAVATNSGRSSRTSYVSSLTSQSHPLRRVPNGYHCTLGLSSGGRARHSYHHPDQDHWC
T1 sequence (P54289 25-1103 partner): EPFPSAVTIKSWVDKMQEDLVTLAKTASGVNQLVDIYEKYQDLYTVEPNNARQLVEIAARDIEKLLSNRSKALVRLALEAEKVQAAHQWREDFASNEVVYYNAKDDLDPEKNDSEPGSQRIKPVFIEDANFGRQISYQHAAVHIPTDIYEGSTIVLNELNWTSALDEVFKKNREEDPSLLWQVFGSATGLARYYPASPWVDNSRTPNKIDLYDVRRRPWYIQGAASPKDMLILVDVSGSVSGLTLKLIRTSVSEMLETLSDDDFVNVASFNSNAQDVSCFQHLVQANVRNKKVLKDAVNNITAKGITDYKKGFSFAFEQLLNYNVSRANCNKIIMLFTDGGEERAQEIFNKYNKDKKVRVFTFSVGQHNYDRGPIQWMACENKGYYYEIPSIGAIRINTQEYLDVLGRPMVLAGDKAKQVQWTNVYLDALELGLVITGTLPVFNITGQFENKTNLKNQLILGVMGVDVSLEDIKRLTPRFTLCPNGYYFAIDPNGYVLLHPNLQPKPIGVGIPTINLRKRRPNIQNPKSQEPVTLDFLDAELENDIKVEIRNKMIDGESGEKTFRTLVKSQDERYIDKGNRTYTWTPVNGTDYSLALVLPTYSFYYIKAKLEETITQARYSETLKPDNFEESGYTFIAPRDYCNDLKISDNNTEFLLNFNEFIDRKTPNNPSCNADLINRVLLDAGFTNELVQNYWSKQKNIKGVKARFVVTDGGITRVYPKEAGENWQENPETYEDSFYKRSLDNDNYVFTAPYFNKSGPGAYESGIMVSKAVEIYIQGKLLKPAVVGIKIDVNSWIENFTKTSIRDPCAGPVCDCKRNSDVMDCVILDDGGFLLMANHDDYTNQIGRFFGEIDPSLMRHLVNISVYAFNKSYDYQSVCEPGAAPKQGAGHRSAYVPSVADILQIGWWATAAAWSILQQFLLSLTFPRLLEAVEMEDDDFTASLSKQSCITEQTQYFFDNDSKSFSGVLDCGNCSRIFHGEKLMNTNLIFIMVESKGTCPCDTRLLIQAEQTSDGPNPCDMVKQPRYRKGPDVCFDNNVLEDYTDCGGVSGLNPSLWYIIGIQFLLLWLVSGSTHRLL
T1 sequence (P54284 whole entry partner): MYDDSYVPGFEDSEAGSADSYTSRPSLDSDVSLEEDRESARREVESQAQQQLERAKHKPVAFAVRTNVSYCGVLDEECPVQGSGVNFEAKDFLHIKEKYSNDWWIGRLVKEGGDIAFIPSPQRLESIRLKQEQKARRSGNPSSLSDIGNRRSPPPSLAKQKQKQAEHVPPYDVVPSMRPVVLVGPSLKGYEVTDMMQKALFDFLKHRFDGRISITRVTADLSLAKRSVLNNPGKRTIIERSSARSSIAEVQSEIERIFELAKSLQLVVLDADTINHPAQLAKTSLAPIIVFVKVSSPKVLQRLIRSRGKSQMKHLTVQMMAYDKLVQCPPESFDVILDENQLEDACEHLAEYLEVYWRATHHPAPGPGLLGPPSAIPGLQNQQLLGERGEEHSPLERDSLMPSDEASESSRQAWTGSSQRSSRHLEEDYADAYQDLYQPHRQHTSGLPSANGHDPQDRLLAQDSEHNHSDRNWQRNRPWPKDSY

One may read the pIC50 as the negative decadic logarithm of the IC50, by convention in mol/L. Take `CC(C)(C)c1cc(C(=O)NC2(C(=O)NCc3ccccc3)CCCCC2)cc(C(C)(C)C#N)c1` [Compound 70, N-(1-(benzylcarbamoyl)cyclohexyl)-3-tert-butyl-5-(2-cyanopropan-2-yl)benzamide]: the inhibition at 10 µM is 89.8%, the inhibition at 30 µM was 96.3% and the pIC50 was 7.56.

Turning to `CNC(=O)C1(NC(=O)c2cc(C(C)(C)C)c(OC)c(C(C)(C)C)c2)CCCCC1` [Compound 28, 3,5-di-tert-butyl-4-methoxy-N-(1-(methylcarbamoyl)cyclohexyl)benzamide], the inhibition at 10 µM turned out to be 82.6%, the inhibition at 30 µM stood at 89.4% and the pIC50 was 7.16.

As for `CC(C)(C)OC(=O)N1CCC(NC(=O)c2cc(C(C)(C)C)nc(C(C)(C)C)c2)(C(=O)NCc2ccccc2)CC1` [Compound 59, tert-butyl 4-(benzylcarbamoyl)-4-(2,6-di-tert-butylisonicotinamido)piperidine-1-carboxylate], the inhibition at 10 µM amounted to 50.2% and the inhibition at 30 µM is 62.5%.

For `CC(C)(C)c1cc(C(=O)NC2(C(=O)NCc3cccc(C(F)(F)F)c3)CCCC2)cc(C(C)(C)C)c1` [Compound 39, 3,5-di-tert-butyl-N-(1-(3-(trifluoromethyl)benzylcarbamoyl)cyclopentyl)benzamide], the inhibition at 10 µM is 79.6%, the inhibition at 30 µM came to 77.9% and the pIC50 is 6.29.

As for `COc1ccc(CNC(=O)C2(NC(=O)c3cc(C(C)(C)C)c(OC)c(C(C)(C)C)c3)CCCCC2)cc1` [Compound 31, 3,5-di-tert-butyl-4-methoxy-N-(1-(4-methoxybenzylcarbamoyl)cyclohexyl)benzamide], the inhibition at 10 µM turned out to be 87.5%, the inhibition at 30 µM worked out at 105% and the pIC50 is 8.58.

On to `COc1c(C(C)(C)C)cc(CNC2(C(=O)NCc3ccccc3)CCCCC2)cc1C(C)(C)C` [Compound 72, N-benzyl-1-(3,5-di-tert-butyl-4-methoxybenzylamino)cyclohexanecarboxamide], for which the inhibition at 10 µM is 97.8%, the inhibition at 30 µM amounted to 97.4% and the pIC50 was 6.84.

Take `CN(C)c1ccc(CNC(=O)C2(NC(=O)c3cc(C(C)(C)C)c(O)c(C(C)(C)C)c3)CCCCC2)cc1` [Compound 7, 3,5-di-tert-butyl-N-(1-(4-(dimethylamino)benzylcarbamoyl)cyclohexyl)-4-hydroxybenzamide]: the inhibition at 10 µM was 99.3%, the inhibition at 30 µM was 102% and the pIC50 was 6.89.

With `CC(C)(C)c1cc(C(=O)NC2(C(=O)NCc3cccc(S(C)(=O)=O)c3)CC2)cc(C(C)(C)C)c1O` [Compound 16, 3,5-di-tert-butyl-4-hydroxy-N-(1-(3-(methylsulfonyl)benzylcarbamoyl)cyclopropyl)benzamide], the inhibition at 10 µM worked out at 89.3% and the inhibition at 30 µM came out at 93%.

As to `Cc1cnc(CNC(=O)C2(NC(=O)c3cc(C(C)(C)C)nc(C(C)(C)C)c3)CCCC2)cn1` [Compound 91, 2,6-di-tert-butyl-N-(1-((5-methylpyrazin-2-yl)methylcarbamoyl)cyclopentyl)isonicotinamide], the inhibition at 10 µM amounted to 95.3%, the inhibition at 30 µM amounted to 96.1% and the pIC50 is 6.83.

In the case of `CC(C)(C)c1cc(C(=O)NC2(C(=O)NCc3ccc(Cl)cc3)CCCCC2)cc(C(C)(C)C)c1` [Compound 46, 3,5-di-tert-butyl-N-(1-(4-chlorobenzylcarbamoyl)cyclohexyl)benzamide], the inhibition at 10 µM came out at 96.6%, the inhibition at 30 µM came to 97.9% and the pIC50 is 7.11.

For `CC(C)(C)c1cc(C(=O)NC2(C(=O)NCc3ccc(CN4CCOCC4)cc3)CCOCC2)cc(C(C)(C)C)n1` [Compound 24, 2,6-di-tert-butyl-N-(4-(4-(morpholinomethyl)benzylcarbamoyl)tetrahydro-2H-pyran-4-yl)isonicotinamide], the inhibition at 10 µM came out at 79.2% and the pIC50 was 6.12.
